Source: patent publication US6525001B1, “Substituted pyrimidine and pyridine herbicides” (Mid-American Commercialization Corporation, priority 1997, dated 2003)

Legend:
Assay type in all cases: in vivo
[1] = tested on: johnsongrass (Sorghum halepense); test: Test C; set-up: key: 0 was no effect; 100 was complete control; conditions: PREEMERGENCE
[2] = tested on: redroot pigweed (Amaranthus retroflexus); test: Test C; set-up: key: 0 was no effect; 100 was complete control; conditions: PREEMERGENCE
[3] = tested on: guineagrass (Panicum maximum); test: Test E pre-/postemergence/post directed; set-up: key: 0 is no effect; 100 is complete control
Summary of the method: (§1)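 Greenhouse pots; compound in non-phytotoxic solvent with surfactant, sprayed preemergence within one day of planting, postemergence at two to four leaf stage (three to twenty cm), or post directed to plant base and soil. Visual injury rated 13 to 21 days after application, 0 (none) to 100 (complete control).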

[4] = tested on: dallisgrass (Paspalum dilatatum); test: Test E pre-/postemergence/post directed; set-up: key: 0 is no effect; 100 is complete control
Summary of the method: as §1

[5] = tested on: common purslane (Portulaca oleracea); test: Test E pre-/postemergence/post directed; set-up: key: 0 is no effect; 100 is complete control
Summary of the method: as §1

[6] = tested on: tall mallow (Malva sylvestris); test: Test E pre-/postemergence/post directed; set-up: key: 0 is no effect; 100 is complete control; conditions: PREEMERGENCE
Summary of the method: as §1

[7] = tested on: pigweed (Amaranthus retroflexus); test: Test B pre-/postemergence; set-up: key: 0 is no effect; 10 is complete control
Summary of the method: (§2)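 Response scores run from 0, meaning no effect, to 10, meaning complete control, assigned by eye relative to controls twelve to sixteen days after spraying. Treatment was both preemergence on planted seed and postemergence on plants at the 1- to 4-leaf stage.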

[8] = tested on: momingglory (Ipomoea hederacea); test: Test B pre-/postemergence; set-up: key: 0 is no effect; 10 is complete control
Summary of the method: as §2

[9] = tested on: cocklebur (Xanthium strumarium); test: Test B pre-/postemergence; set-up: key: 0 is no effect; 10 is complete control
Summary of the method: as §2

[10] = tested on: blackgrass (Alopecurus myosuroides); test: Test B pre-/postemergence; set-up: key: 0 is no effect; 10 is complete control
Summary of the method: as §2

[11] = tested on: broadleaf signalgrass (Brachiaria decumbens); test: Test B pre-/postemergence; set-up: key: 0 is no effect; 10 is complete control
Summary of the method: as §2

[12] = tested on: arrowleaf sida (Sida rhombifolia); test: Test C; set-up: key: 0 was no effect; 100 was complete control; conditions: PREEMERGENCE

Cc1cnc(-c2ccc(C(F)(F)F)cc2)nc1Cc1cccc(C(F)(F)F)c1 [Example 1, 5-methyl-2-[4-(trifluoromethyl)phenyl]-4-[[3-(trifluoromethyl)phenyl]methyl]pyrimidine]
Plant response rating, Johnsongrass ([1]; Rate 35 g/ha): 50
Plant response rating, Johnsongrass ([1]; Rate 70 g/ha): 95
Plant response rating, Johnsongrass ([1]; Rate 140 g/ha): 100
Plant response rating, Redroot pigweed ([2]; Rate 35 g/ha): 100
Plant response rating, Redroot pigweed ([2]; Rate 70 g/ha): 100
Plant response rating, Redroot pigweed ([2]; Rate 140 g/ha): 100
Plant response rating, Guineagrass ([3]; POSTEMERGENCE, Rate 250 g/ha): 70
Plant response rating, Guineagrass ([3]; PREEMERGENCE, Rate 32 g/ha): 90
Plant response rating, Guineagrass ([3]; PREEMERGENCE, Rate 64 g/ha): 100
Plant response rating, Guineagrass ([3]; PREEMERGENCE, Rate 125 g/ha): 100
Plant response rating, Guineagrass ([3]; PREEMERGENCE, Rate 250 g/ha): 100
Plant response rating, Dallisgrass ([4]; POSTEMERGENCE, Rate 250 g/ha): 90
Plant response rating, Dallisgrass ([4]; PREEMERGENCE, Rate 32 g/ha): 98
Plant response rating, Dallisgrass ([4]; PREEMERGENCE, Rate 64 g/ha): 100
Plant response rating, Dallisgrass ([4]; PREEMERGENCE, Rate 125 g/ha): 100
Plant response rating, Dallisgrass ([4]; PREEMERGENCE, Rate 250 g/ha): 100
Plant response rating, Com. purslane ([5]; POSTEMERGENCE, Rate 250 g/ha): 40
Plant response rating, Com. purslane ([5]; PREEMERGENCE, Rate 32 g/ha): 98
Plant response rating, Com. purslane ([5]; PREEMERGENCE, Rate 64 g/ha): 100
Plant response rating, Com. purslane ([5]; PREEMERGENCE, Rate 125 g/ha): 100
Plant response rating, Com. purslane ([5]; PREEMERGENCE, Rate 250 g/ha): 100
Plant response rating, Tall Mallow ([6]; Rate 32 g/ha): 100
Plant response rating, Tall Mallow ([6]; Rate 64 g/ha): 100
Plant response rating, Tall Mallow ([6]; Rate 125 g/ha): 100
Plant response rating, Tall Mallow ([6]; Rate 250 g/ha): 100
Plant response rating, Redroot pigweed ([7]; Rate 62 g/ha, Postemergence): 9
Redroot pigweed plant response rating ([7]; Rate 62 g/ha, Preemergence): 10
Plant response rating, Redroot pigweed ([7]; Rate 125 g/ha, Postemergence): 9
Redroot pigweed plant response rating ([7]; Rate 125 g/ha, Preemergence): 10
Plant response rating, Redroot pigweed ([7]; Rate 250 g/ha, Postemergence): 10
Plant response rating, Redroot pigweed ([7]; Rate 250 g/ha, Preemergence): 10
Plant response rating, Redroot pigweed ([7]; Rate 500 g/ha, Postemergence): 10
Plant response rating, Redroot pigweed ([7]; Rate 500 g/ha, Preemergence): 10
Plant response rating, Morningglory ([8]; Rate 62 g/ha, Postemergence): 4
Morningglory plant response rating ([8]; Rate 62 g/ha, Preemergence): 10
Plant response rating, Morningglory ([8]; Rate 125 g/ha, Postemergence): 8
Morningglory plant response rating ([8]; Rate 125 g/ha, Preemergence): 10
Plant response rating, Morningglory ([8]; Rate 250 g/ha, Postemergence): 10
Plant response rating, Morningglory ([8]; Rate 250 g/ha, Preemergence): 10
Plant response rating, Morningglory ([8]; Rate 500 g/ha, Postemergence): 10
Plant response rating, Morningglory ([8]; Rate 500 g/ha, Preemergence): 10
Plant response rating, Cocklebur ([9]; Rate 62 g/ha, Postemergence): 7
Cocklebur plant response rating ([9]; Rate 62 g/ha, Preemergence): 2
Plant response rating, Cocklebur ([9]; Rate 125 g/ha, Postemergence): 8
Cocklebur plant response rating ([9]; Rate 125 g/ha, Preemergence): 2
Plant response rating, Cocklebur ([9]; Rate 250 g/ha, Postemergence): 9
Plant response rating, Cocklebur ([9]; Rate 250 g/ha, Preemergence): 3
Plant response rating, Cocklebur ([9]; Rate 500 g/ha, Postemergence): 10
Plant response rating, Cocklebur ([9]; Rate 500 g/ha, Preemergence): 10
Plant response rating, Blackgrass ([10]; Rate 62 g/ha, Postemergence): 7
Blackgrass plant response rating ([10]; Rate 62 g/ha, Preemergence): 8
Plant response rating, Blackgrass ([10]; Rate 125 g/ha, Postemergence): 7
Blackgrass plant response rating ([10]; Rate 125 g/ha, Preemergence): 9
Plant response rating, Blackgrass ([10]; Rate 250 g/ha, Postemergence): 9
Plant response rating, Blackgrass ([10]; Rate 250 g/ha, Preemergence): 10
Plant response rating, Blackgrass ([10]; Rate 500 g/ha, Postemergence): 9
Plant response rating, Blackgrass ([10]; Rate 500 g/ha, Preemergence): 10
Plant response rating, B. signalgrass ([11]; Rate 62 g/ha, Postemergence): 3
B. signalgrass plant response rating ([11]; Rate 62 g/ha, Preemergence): 9
Plant response rating, B. signalgrass ([11]; Rate 125 g/ha, Postemergence): 6
B. signalgrass plant response rating ([11]; Rate 125 g/ha, Preemergence): 9
Plant response rating, B. signalgrass ([11]; Rate 250 g/ha, Postemergence): 8
Plant response rating, B. signalgrass ([11]; Rate 250 g/ha, Preemergence): 9
Plant response rating, B. signalgrass ([11]; Rate 500 g/ha, Postemergence): 9
Plant response rating, B. signalgrass ([11]; Rate 500 g/ha, Preemergence): 9
Plant response rating, Arrowleaf sida ([12]; Rate 35 g/ha): 85
Plant response rating, Arrowleaf sida ([12]; Rate 70 g/ha): 95
Plant response rating, Arrowleaf sida ([12]; Rate 140 g/ha): 100
